Source: patent US20220233652A1, “Pharmaceutical Compositions Comprising Integration-Promoting Peptides” (priority 2018, published 2022)
Where two headings read alike, the source gives them in different places. No end group written: not given here.

Tests used:
[1] = Preliminary solubility test of INS peptide salts in co-solvents and water; format: physicochemical; conditions: for Solubility in PBS: physiological conditions; for solubility: read-out: Approximate Solubility
Method: Solubility of different INS peptide salts was measured in several co-solvents and in water.

[2] = Stability of formulations F4, F7 and F10 (HPLC); format: physicochemical; conditions: F4, F7 and F10, ambient temperature and 4° C., 24 hours
Method: To investigate the stability of formulation F4, F7 and F10 they were stored at ambient temperature and at 4° C. Samples were taken out at time zero (initial) and after 24 hours and diluted 10 times with water prior to HPLC analysis. The results were compared to the standard peptide 0.5 mg/ml in water (STD).

[3] = Stability study of lyophilized formulation after reconstitution; format: physicochemical
Method: To obtain an isotonic solution having desired osmolality of about 300-330 mOsm/kg, the poloxamer percentage was reduced to 0.8% and the lactose percentage was reduced to 9.5%. The solution formulation F45 was prepared in a 40 ml clear glass vial according to Table 20. The pH was adjusted by NH4OH. […]
The physical and chemical stability of lyophilized powder obtained in Example 10 was investigated. The lyophilized powder was stored at −20° C. […] Formulations before filtration were used as a control (initial state) at each time point. […] At the time point: 0 h, 24 hours and 7 days appearance, pH and osmolarity were tested and the solutions were analyzed by HPLC for the presence of degradation. The recovery percent after filtration was also calculated. To investigate short-term in-use stability, additional 218 mg of lyophilized material was reconstituted, and the solution was stored at room temperature for 4 hours. […]

[4] = test system: 1975 human lung cancer cells; test: Lung cancer tumor mice model; format: in vivo, athymic nude mice; conditions: INS HCL and tumor-targeted lentiviral particles; lung cancer and pancreatic cancer models
Method: Two models of cancer were generated: lung cancer and pancreatic cancer. About 5×10^6 of 1975 human lung cancer cells per 0.1 ml PBS per mouse were injected to male 7 weeks old athymic nude mice (n=30). The cells were injected, subcutaneously at one site on the back of the mice. About 5×10^6 PANC-1 human pancreatic cancer cells per 0.1 ml PBS per mouse were injected to male 7 weeks old athymic nude mice (n=22). The cells were injected, subcutaneously at one site on the back of the mice. When tumors were palpable (˜0.3-0.5 cm^3), the mice were randomly divided into three groups (Table 27) and the viruses and/or peptides were injected, twice a week for two weeks.
The first day of the study was defined as ‘Day 1’. The animals were administrated IP with either Vehicle (PBS or Formulation), lentiviral particles and SC with test items according to Table 27 on days 1, 4, 8 and 11. Body weight and tumor volume were checked on days 3, 7, 11, 14 and 17 (the latter was measured with a caliper). At the end of the experiment, on day 17, the mice were anesthetized and then sacrificed, and the tumors were removed, as well as lung, spleen, kidney and liver.

[5] = Phase I/IIa clinical trial: safety and tolerability; format: in vivo, human; conditions: HIV patients, SC twice weekly, 1% poloxamer 188 and 9% lactose formulation; preliminary results
Source text: Patients are monitored for adverse events (AE) of the INS peptide such as rash, acute allergic reaction, bronchospasm, respiratory distress, and acute vascular leak syndrome. If a severe administration related reaction occurs, the drug administration is stopped. Blood chemistry, hematology, coagulation, and urinalysis are repeated on Days 1, 4, 8, 11, 15, 18, 22, 25 at the clinic visits.
The primary safety endpoint is the frequency, severity, and duration of side effects. Number of participants with treatment-related adverse events as assessed by CTCAE v4.03, are evaluated though study completion. Main adverse events evaluation is based on DADS Toxicity criteria (Division of AIDS DADS Table for Grading the Severity of Adult and Paediatric Adverse Events, Corrected Version 2.1): • Viral load • Lymphopenia/Neutropenia • Immuno-reaction over reaction/cytokine storm • Infection surrounding the administration site • Liver function (lab tests) • Kidney function (lab tests)
Incidence of withdrawal (drop-out rate) due to side effects is evaluated throughout the study.

For WTAVQMAVFIHNFKRK [INS acetate], the “Solubility in DMSO” value ([1]; DMSO) was “completely insoluble”, the “Solubility in PBS” value ([1]; PBS) was “completely insoluble” and the “pH above which the dissolved salt precipitated” value ([1]; dissolved in low pH, pH raised) was “above 4”. For the same sequence, the “Solubility in water” value ([1]; water) was “soluble”.

In the case of WTAVQMAVFIHNFKRK [INS HCl], the solubility ([1]; DMSO) is reported as at most 10000 µg/mL, the “Appearance in H2O” value ([1]; H2O) is reported as “slightly opalescence” and the “pH in H2O” value ([1]; H2O, 10 mg/ml) is reported as 2.60. For the same sequence, the “Approximate Solubility” value ([1]; PBS) was “Not soluble”, the “Solubility in PBS” value ([1]; PBS) was “practically insoluble” and the “Solubility in PEG400” value ([1]; PEG400) was “poor solubility”. For the same sequence, the solubility ([1]; PEG400) was under 5000 µg/mL, the “Appearance in propylene glycol” value ([1]; Propylene glycol (PG), 5mg/ml) was “clear solution” and the “Solubility in ethanol” value ([1]; ethanol) was “poor solubility”. For the same sequence, the solubility ([1]; ethanol) was under 5000 µg/mL, the solubility ([1]; propylene glycol (PG)) was 5000 to 10000 µg/mL and the “Solubility in PG” value ([1]; propylene glycol, a clear solution was obtained) was “moderate solubility”. The “Appearance of solution in water” value ([1]; water) was “solution with opalescence”, the “pH of solution in water” value ([1]; water) was 2.6 and the solubility ([1]; water, pH 2.6, H2O) was over 10000 µg/mL. The “Stability in formulations” value [2] was “high stability in all formulations”, the “Peptide adsorbed to PES filters” value ([3]; PES filters) was “about 30%” and the “Time stable at room temperature after reconstitution” value ([3]; room temperature, no significant difference in comparison to control) was “at least 4 hours”. The “Decrease in growth of tumors” value [4] was “up to 50%” and the “Safety and tolerability” value [5] was “safe and well tolerable”.

In the case of WTAVQMAVFIHNFKRK [INS TFA], the “Concentration dissolved in DMSO” value ([1]; DMSO) is reported as at most 10000 µg/mL, the “Behaviour upon dilution in PBS” value ([1]; solution in water or DMSO diluted in PBS) is reported as “precipitated” and the “Concentration dissolved in water” value ([1]; water) is reported as at most 10000 µg/mL.
